Measured values from PubChem BioAssay (NCI).
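The concentration for 50% growth inhibition is given as GI50. TGI denotes the concentration required for complete inhibition of growth.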

Key:
Experiment in all cases: inhibition of tumour cell growth, NCI panel, 384-well format
M14 melanoma = tested on: M14 melanoma
NCI-H226 lung = tested on: NCI-H226 lung
NCI-H522 lung = tested on: NCI-H522 lung
RPMI-8226 leukemia = tested on: RPMI-8226 leukemia
EKVX NSCLC = tested on: EKVX NSCLC
HL-60(TB) leukemia = tested on: HL-60(TB) leukemia
UO-31 renal = tested on: UO-31 renal
NCI-H460 NSCLC = tested on: NCI-H460 NSCLC
UACC-257 melanoma = tested on: UACC-257 melanoma
HCC-2998 colon = tested on: HCC-2998 colon
SF-295 CNS = tested on: SF-295 CNS
ACHN renal = tested on: ACHN renal
COLO 205 colon = tested on: COLO 205 colon

CC(C)Nc1cc(-c2c[nH]c(C(=O)N[C@H](CO)c3cccc(Cl)c3)c2)c(Cl)cn1
GI50 (M14 melanoma): 0.0842 µM
TGI (M14 melanoma): 0.328 µM
GI50 (NCI-H226 lung): 1.34 µM
TGI (NCI-H226 lung): 16.6 µM
GI50 (NCI-H522 lung): 1.8 µM
TGI (NCI-H522 lung): 13.2 µM
GI50 (RPMI-8226 leukemia): 0.366 µM
TGI (RPMI-8226 leukemia): 1.88 µM
GI50 (EKVX NSCLC): 3.46 µM
TGI (EKVX NSCLC): 17.3 µM
GI50 (HL-60(TB) leukemia): 0.184 µM
TGI (HL-60(TB) leukemia): 1.17 µM
GI50 (UO-31 renal): 3.23 µM
TGI (UO-31 renal): 16.8 µM
GI50 (NCI-H460 NSCLC): 0.758 µM
TGI (NCI-H460 NSCLC): 13.6 µM
GI50 (UACC-257 melanoma): 0.144 µM
TGI (UACC-257 melanoma): 0.498 µM
GI50 (HCC-2998 colon): 0.0896 µM
TGI (HCC-2998 colon): 0.309 µM
GI50 (SF-295 CNS): 7.68 µM
TGI (SF-295 CNS): 20.2 µM
GI50 (ACHN renal): 2.95 µM
TGI (ACHN renal): 16.3 µM
GI50 (COLO 205 colon): 0.134 µM
TGI (COLO 205 colon): 1.07 µM

CC[C@H](Nc1ncnc2nc[nH]c12)c1nc2cccc(F)c2c(=O)n1-c1ccccc1
GI50 (M14 melanoma): > 69 µM
TGI (M14 melanoma): > 100 µM
GI50 (NCI-H226 lung): 37 µM
TGI (NCI-H226 lung): > 100 µM
GI50 (NCI-H522 lung): 26.1 µM
TGI (NCI-H522 lung): > 100 µM
GI50 (RPMI-8226 leukemia): 16.7 µM
TGI (RPMI-8226 leukemia): 36.5 µM
GI50 (EKVX NSCLC): 22.4 µM
TGI (EKVX NSCLC): > 84.8 µM
GI50 (HL-60(TB) leukemia): 4.61 µM
TGI (HL-60(TB) leukemia): 17.9 µM
GI50 (UO-31 renal): 5.12 µM
GI50 (NCI-H460 NSCLC): 38 µM
TGI (NCI-H460 NSCLC): > 100 µM
GI50 (UACC-257 melanoma): > 74.9 µM
TGI (UACC-257 melanoma): > 100 µM
GI50 (HCC-2998 colon): 36.7 µM
TGI (HCC-2998 colon): > 93.5 µM
GI50 (SF-295 CNS): 23.1 µM
TGI (SF-295 CNS): > 76.3 µM
GI50 (ACHN renal): 13.2 µM
TGI (ACHN renal): > 100 µM
GI50 (COLO 205 colon): > 67.3 µM
TGI (COLO 205 colon): > 100 µM
